# Legend:
# [1] = molecular target: GDP-bound HRAS wild-type protein (Homo sapiens, UniProt P01112); assay: Binding to HRAS by surface plasmon resonance (SPR), Single Cycle Kinetics
# [2] = molecular target: GDP-bound NRAS wild-type protein (Homo sapiens, UniProt P01111); assay: Binding to NRAS by surface plasmon resonance (SPR), Single Cycle Kinetics
# [3] = KD ratio, GDP-bound HRAS wild-type vs GDP-bound KRAS wild-type, SPR
# [4] = KD ratio, GDP-bound NRAS wild-type vs GDP-bound KRAS wild-type, SPR
# Sequence of GDP-bound NRAS wild-type protein (P01111 whole entry): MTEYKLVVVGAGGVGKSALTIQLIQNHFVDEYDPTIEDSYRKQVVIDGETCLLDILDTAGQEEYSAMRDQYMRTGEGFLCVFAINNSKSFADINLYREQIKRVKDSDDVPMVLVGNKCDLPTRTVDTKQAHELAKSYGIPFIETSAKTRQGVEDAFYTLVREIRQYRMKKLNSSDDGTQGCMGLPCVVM
# Sequence of GDP-bound HRAS wild-type protein (P01112 whole entry): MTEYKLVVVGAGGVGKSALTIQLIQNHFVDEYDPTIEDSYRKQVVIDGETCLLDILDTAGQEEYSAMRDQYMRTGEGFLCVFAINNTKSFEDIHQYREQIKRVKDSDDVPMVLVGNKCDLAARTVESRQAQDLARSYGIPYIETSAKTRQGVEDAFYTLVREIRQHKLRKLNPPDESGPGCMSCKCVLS
structure (smiles),measurement,setting,value
CC[C@H](C)[C@@H]1NC(=O)[C@H](CC(C)C)N(C)C(=O)C[C@@H](C(=O)N(C)CC)N(C)C(=O)[C@H](C2CCCC2)N(C)C(=O)C2(CCC2)NC(=O)[C@@H]2C[C@H](C)CN2C(=O)[C@H](CCc2ccc(C(F)(F)F)c(OC)c2)NC(=O)CN(C)C(=O)[C@H](Cc2ccc(C)cc2)N2CC/C=C\C[C@@H](C2=O)N(C)C(=O)CN(C)C1=O [PP1904],HRAS/KRAS (ratio of KD value for HRAS to KD value for KRAS),[1]; [3],B (a compound having 3 or more and less than 10 is denoted as B)
same,NRAS/KRAS (ratio of KD value for NRAS to KD value for KRAS),[2]; [4],A (a compound having 10 or more and less than 20 is denoted as A)
C#CC[C@H]1C(=O)N[C@@H]([C@@H](C)CC)C(=O)N(C)CC(=O)N(C)[C@H]2C/C=C\CCN(C2=O)[C@@H](Cc2ccc(C(F)(F)F)cc2)C(=O)N(C)CC(=O)N[C@@H](CCc2ccc(C(F)(F)F)c(OC)c2)C(=O)N2CCOC[C@H]2C(=O)NC2(CC(C)(C)C2)C(=O)N(C)[C@@H](C2CCCC2)C(=O)N(C)[C@H](C(=O)N(C)C)CC(=O)N1C [PP2905],HRAS/KRAS (ratio of KD value with respect to GDP-bound HRAS wild-type protein to KD value with respect to KRAS),[1]; class symbols,A (a compound having 10 or more and less than 20 is denoted as A)
same,NRAS/KRAS (ratio of KD value with respect to GDP-bound NRAS wild-type protein to KD value with respect to KRAS),[2]; class symbols,AA (a compound having 20 or more is denoted as AA)
C=CCCCC[C@H]1C(=O)N[C@@H]([C@@H](C)CC)C(=O)N(C)CC(=O)N(C)[C@H]2CCCCN(C2=O)[C@@H](Cc2ccc(C(F)(F)F)cc2)C(=O)N(C)CC(=O)N[C@@H](CCc2cc(F)c(C(F)(F)F)c(F)c2)C(=O)N2C[C@H](OCC)C[C@H]2C(=O)N[C@](C)(CC=C)C(=O)N(C)[C@@H](C2CCCC2)C(=O)N(C)[C@H](C(=O)N2CCOCC2)CC(=O)N1C [PP0877],HRAS/KRAS (ratio of KD value with respect to HRAS to KD value with respect to KRAS),[1]; [3],B (a compound having 3 or more and less than 10 is denoted as B)
same,NRAS/KRAS (ratio of KD value with respect to NRAS to KD value with respect to KRAS),[2]; [4],C (A compound having a KD ratio of 0.1 or more and less than 3 is denoted as C)
CCO[C@@H]1C[C@H]2C(=O)NC3(CCC3)C(=O)N(C)[C@@H](C3CCCC3)C(=O)N(CCc3ccccc3)[C@H](C(=O)N(C)C)CC(=O)N(C)[C@@H](CC)C(=O)N[C@@H]([C@@H](C)CC)C(=O)N(C)CC(=O)N(C)[C@H]3CCCCN(C3=O)[C@@H](Cc3ccc(C(F)(F)F)cc3)C(=O)N(C)CC(=O)N[C@@H](CCc3cc(F)c(C(F)(F)F)c(F)c3)C(=O)N2C1 [PP0647],HRAS/KRAS (ratio of KD value with respect to GDP-bound HRAS wild-type protein to KD value with respect to KRAS),[1]; SPR,B (a compound having 3 or more and less than 10 is denoted as B)
same,NRAS/KRAS (ratio of KD value with respect to GDP-bound NRAS wild-type protein to KD value with respect to KRAS),[2]; SPR,C (A compound having a KD ratio of 0.1 or more and less than 3 is denoted as C)
CCC[C@H]1C(=O)N[C@@H]([C@@H](C)CC)C(=O)N(C)CC(=O)N(C)[C@H]2C/C=C\CCN(C2=O)[C@@H](Cc2ccc(C(F)(F)F)cc2)C(=O)N(C)CC(=O)N[C@@H](CCc2cc(F)c(C(F)(F)F)c(F)c2)C(=O)N2C[C@H](OCC)C[C@H]2C(=O)NC2(CCC2)C(=O)N(C)[C@@H](C2CCCC2)C(=O)N(C)[C@H](C(=O)N(C)C)CC(=O)N1C [PP1110],HRAS/KRAS (ratio of KD value with respect to HRAS to KD value with respect to KRAS),[1]; [3],B (a compound having 3 or more and less than 10 is denoted as B)
same,NRAS/KRAS (ratio of KD value with respect to NRAS to KD value with respect to KRAS),[2]; [4],A (a compound having 10 or more and less than 20 is denoted as A)
CCC[C@H]1C(=O)N[C@@H]([C@@H](C)CC)C(=O)N2CCC[C@H]2C(=O)N(C)[C@H]2C/C=C\CCN(C2=O)[C@@H](Cc2ccc(C)cc2)C(=O)N(C)CC(=O)N[C@@H](CCc2ccc(C(F)(F)F)c(OC)c2)C(=O)N2C[C@H](OCC)C[C@H]2C(=O)N(C)C2(CCC2)C(=O)N(C)[C@@H](C(CC)CC)C(=O)N(C)[C@H](C(=O)N(C)C)CC(=O)N1C [PP2329],HRAS/KRAS (ratio of KD value with respect to HRAS to KD value with respect to KRAS),"[1]; SPR, GDP-bound HRAS wild-type vs GDP-bound KRAS wild-type",A (a compound having 10 or more and less than 20 is denoted as A)
same,NRAS/KRAS (ratio of KD value with respect to NRAS to KD value with respect to KRAS),"[2]; SPR, GDP-bound NRAS wild-type vs GDP-bound KRAS wild-type",A (a compound having 10 or more and less than 20 is denoted as A)
CC[C@H](C)[C@@H]1NC(=O)[C@@H]2CCC/C=C/c3ccc(cc3)C[C@@H](C(=O)N(C)CC(=O)N[C@@H](CCc3ccc(Cl)c(Cl)c3)C(=O)N3CCC[C@H]3C(=O)NC3(CC(C)(C)C3)C(=O)N(C)[C@@H](C3CCCC3)C(=O)N(C)[C@H](C(=O)N(C)CC)CC(=O)N2C)N2CC/C=C\C[C@@H](C2=O)N(C)C(=O)CN(C)C1=O [PP2601],HRAS/KRAS (ratio of KD value with respect to GDP-bound HRAS wild-type protein to KD value with respect to KRAS),[1]; class symbols,A (a compound having 10 or more and less than 20 is denoted as A)
same,NRAS/KRAS (ratio of KD value with respect to GDP-bound NRAS wild-type protein to KD value with respect to KRAS),[2]; class symbols,A (a compound having 10 or more and less than 20 is denoted as A)

# From patent publication US20250230193A1, “CYCLIC COMPOUND HAVING SELECTIVE KRAS INHIBITORY EFFECT ON HRAS AND NRAS” (CHUGAI SEIYAKU KABUSHIKI KAISHA, priority 2022, published 2025)
